In paper PMC8171317, “Total synthesis, isolation, surfactant properties, and biological evaluation of ananatosides and related macrodilactone-containing rhamnolipids” (Chemical Science, 2021):

Experiments:
[1] = Surface tension and CMC, Fisher tensiometer, du Noüy ring method; assay type: physicochemical; set-up: γ CMC (surface tension at CMC): unit not given here; conditions: pH 7.0; synthetic samples
Procedure: Biosurfactants are molecules that can associate with each other leading to the formation of micelles. They can also interact with surfaces between phases of different polarity such as the air/water or oil/water interface.[77] To gain quantitative insights into the surface-active properties of microbial glycolipids, the surface tensions at CMC (γCMC) of ananatoside A (1) and ananatoside B (2) were measured using a Fisher tensiometer by means of the du Noüy ring method. The CMC, referring to the concentration of surfactant at which micelles start to form, was determined from a plot of surface tension again each concentration. […] Consequently, the surface tension measurements were performed quickly to avoid the precipitation of ananatoside A (1) into the aqueous medium.

Arabidopsis petiole = assay: Extracellular ROS production, luminol chemiluminescence; assay type: cell-based, Arabidopsis thaliana; conditions: 100 μM
Procedure: The only exception to this general trend was compound 5β. […]
ananatoside A (1) ananatoside B (2)
Figure S8. Extracellular ROS production following treatment of Arabidopsis petiole with […]
ananatoside A (1) or ananatoside B (2). Production of reactive oxygen species (ROS) was measured […]
in Arabidopsis petiole following treatment at 100 µM with ananatoside A (1) and ananatoside B […]
(2). Methanol (0.5%) was used as a control. ROS production was measured using the […]
chemiluminescence of luminol and photon counts were expressed as relative luminescence units […]
(RLUs). Data are mean ± SEM (n = 6). Experiments were realized three times with similar results.
(also on this page, place not known: S 8. ( 1) Luminescence (RLU) Luminescence (RLU)) […]
ranging between 200 µM and 1.56 µM. Triton X-100 was used as a positive hemolysis control.
The plate was then incubated at 37 °C with agitation at 150 rpm for 1 h and centrifuged at 1500 × g for 5 min. The supernatant was transferred in an empty plate and absorbance was measured at 540 nm using a Cytation3 microplate reader (Biotek). HC50 was calculated in comparison with the positive control. The experiment was performed in triplicate and repeated three times.
Plant Material and Growth Conditions. […]
Reactive Oxygen Species (ROS) Production. […] Luminescence (relative light units, RLU) was measured every 4

[2] = Dynamic light scattering (Zetasizer), hydrodynamic diameter of micelles; assay type: physicochemical; conditions: pH 7.0; concentration 80 μM
Source text: In parallel to these experiments, we took advantage of dynamic light scattering (DLS) to evaluate the hydrodynamic diameter of biosurfactant micelles formed at concentrations above the CMC (Table 4).[79] DLS considers the intensity of light scattered by spherical particles, which prevents its application for highly polydisperse and non-spherical colloidal systems. […] Once again, due to its hydrophobicity, ananatoside A (1) was too polydisperse for conducting a proper distribution analysis, showing a Z-average value above 800 nm, which meant that the particles were aggregated in water at the tested concentration. Similar results were obtained for ananatoside A (1) when the DLS experiments were conducted in DMSO as the solvent.

[3] = Emulsifying activity against hydrocarbon contaminants; assay type: physicochemical; conditions: cyclohexane and kerosene
Procedure: Therefore, the emulsifying properties of microbial biosurfactants 1–3 were evaluated against light as well as heavy hydrocarbon contaminants such as cyclohexane and kerosene, respectively (see Fig. S7 ^†).

Compound	CMC (critical micelle concentration) [1]	γ CMC (surface tension at CMC) [1]	Extracellular ROS production (perception by plants) (Arabidopsis petiole)	Z-Average (hydrodynamic diameter of micelles) [2]	Emulsifying activity [3]
CCCCCCC[C@H](CC(=O)O)OC(=O)C[C@@H](CCCCCCC)O[C@@H]1O[C@H](CO)[C@@H](O)[C@H](O)[C@H]1O [Compound 2, ananatoside B]	63 ± 2 µM	28 ± 1	perceived by plants	99.0 nm	equally able to generate emulsions with cyclohexane and kerosene
CCCCCCC[C@@H]1CC(=O)OC[C@H]2O[C@@H](O[C@H](CCCCCCC)CC(=O)O1)[C@H](O)[C@@H](O)[C@@H]2O [Compound 1, ananatoside A]	43 ± 2 µM	37 ± 1	perceived by plants	–	unable to form any emulsion
